According to patent US8841257B2, “Inhibitors of STAT3 and uses thereof” (Board of Regents, The University of Texas System, priority 2009, dated 2014):
“Also recorded” adds a separate entry of the source.

Each molecule was assayed against STAT3 (Homo sapiens, UniProt P40763) (assay: Inhibition of Stat3 tyrosine705 phosphorylation in MDA-MB-468 cells). Settings: prodrug in DMSO, 2 h.
Chain of STAT3 (P40763 whole entry): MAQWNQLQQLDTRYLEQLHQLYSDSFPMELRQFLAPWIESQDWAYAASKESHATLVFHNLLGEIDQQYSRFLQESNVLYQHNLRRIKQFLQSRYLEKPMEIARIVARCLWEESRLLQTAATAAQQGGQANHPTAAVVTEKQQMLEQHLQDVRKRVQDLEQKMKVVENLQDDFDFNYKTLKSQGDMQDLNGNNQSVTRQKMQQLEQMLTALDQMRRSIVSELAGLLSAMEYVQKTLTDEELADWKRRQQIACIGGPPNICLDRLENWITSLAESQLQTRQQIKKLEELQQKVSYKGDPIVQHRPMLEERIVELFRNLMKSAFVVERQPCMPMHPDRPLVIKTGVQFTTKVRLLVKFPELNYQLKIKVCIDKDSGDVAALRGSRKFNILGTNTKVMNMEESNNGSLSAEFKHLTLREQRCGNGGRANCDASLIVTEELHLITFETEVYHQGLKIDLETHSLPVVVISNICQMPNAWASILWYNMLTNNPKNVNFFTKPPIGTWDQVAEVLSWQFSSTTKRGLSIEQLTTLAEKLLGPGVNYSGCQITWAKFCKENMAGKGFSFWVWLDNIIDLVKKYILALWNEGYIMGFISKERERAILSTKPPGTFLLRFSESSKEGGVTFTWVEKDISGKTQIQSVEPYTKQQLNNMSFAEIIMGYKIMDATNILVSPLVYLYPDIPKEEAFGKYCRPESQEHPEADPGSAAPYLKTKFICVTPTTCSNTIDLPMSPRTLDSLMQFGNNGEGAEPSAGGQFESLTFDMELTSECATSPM
Type: cell-based
Set-up: host or cells: MDA-MB-468 breast tumor cells
Procedure: Inhibition of Stat3 tyrosine705 phosphorylation in MDA-MB-468 cells. MDA-MB-468 breast tumor cells (0.4×10^6) were plated onto 35 mm culture dishes and were allowed to grow overnight. Prodrugs were prepared as 10 mM stock solutions in DMSO and aliquots were added to the culture media to give the correct final concentrations. After 2 h the cells were washed with ice cold phosphate buffered saline. Washed cells were treated with lysis buffer (50 mM Hepes, pH 7.4, 150 mM NaCl, 1.5 mM MgCl2, 1 mM EGTA, 100 mM NaF, 10 mM sodium pyrophosphate, 10% glycerol, 1% Triton X-100, 1 mM PMSF, 1 mM Na3VO4, 10 μg/mL leupeptin and 10 μg/mL aprotinin). Cell-free detergent extracts were centrifuged at 15,000 rpm in a microcentriguge for 30 min at 4° C. and the protein concentrations of the supernatants determined. Aliquots containing 12 μg of protein were separated on 8% SDS-PAGE and were transferred to PVDF filters. The filters were blocked with 5% bovine serum albumin and were probed with pStat3^Y705 antibody followed by secondary antibody, whose signal was detected with an enhanced chemiluminescence kit (ECL, Amersham, Chicago, Ill.). Filters were stripped with stripping buffer (62.5 mM Tris, pH 6.8, 2% SDS, and 0.1 M 2-mercaptoethanol) at 50° C. for 30 min. Filters were then probed with total Stat3 antibody and visualized with chemiluminescence as above.
`CCCC[C@H](NC(=O)/C=C(\C)c1ccc(C(F)(F)P(=O)(OCOC(=O)C(C)(C)C)OCOC(=O)C(C)(C)C)cc1)C(=O)N1C[C@@H]2CC2[C@@H]1C(=O)N[C@@H](CCC(N)=O)[C@@H](C)OCc1ccccc1` (stereo partly drawn) [Example 17, (2E)-3-[4-[[bis[(2,2-dimethyl-1-oxopropoxy)methoxy]phosphinyl]difluoromethyl]phenyl]-but-2-enoyl-norleucinyl-(2R,3S,4R)-methanoprolinyl-(4S,5R)-4-amino-5-benzyloxyhexamide] was tested, and the “inhibition of Tyr705 phosphorylation of Stat3 (potency in words)” value (from here on “inhibition”) was “very weak inhibitors; also recorded: much less potent”. For `CCCC[C@H](NC(=O)/C=C(\C)c1ccc(C(F)(F)P(=O)(OCOC(=O)C(C)(C)C)OCOC(=O)C(C)(C)C)cc1)C(=O)N1C[C@@H]2CC2[C@@H]1C(=O)N[C@H](C)CCC(N)=O` (stereo partly drawn) [Example 19, (2E)-3-[4-[[bis[(2,2-dimethyl-1-oxopropoxy)methoxy]phosphinyl]difluoromethyl]phenyl]-but-2-enoyl-norleucinyl-(2R,3S,4R)-methanoprolinyl-(R)-4-aminopentamide], the “inhibition” value was “very weak inhibitors; also recorded: much less potent”. For `CCCC[C@H](NC(=O)/C=C(\C)c1ccc(C(F)(F)P(=O)(OCOC(=O)C(C)(C)C)OCOC(=O)C(C)(C)C)cc1)C(=O)N1CCC[C@H]1C(=O)N[C@H](C)CCC(N)=O` [Example 23, (2E)-3-[4-[[bis[(2,2-dimethyl-1-oxopropoxy)methoxy]phosphinyl]difluoromethyl]phenyl]-but-2-enoyl-norleucinyl-prolinyl-(R)-4-aminonentamide], the “inhibition” value was “inhibit phosphorylation of STAT3”. For `CCCC[C@H](NC(=O)/C=C(\C)c1ccc(C(F)(F)P(=O)(OCOC(=O)C(C)(C)C)OCOC(=O)C(C)(C)C)cc1)C(=O)N1CC(F)(F)C[C@H]1C(=O)N[C@H](C)CCC(N)=O` [Example 24, (2E)-3-[4-[[bis[(2,2-dimethyl-1-oxopropoxy)methoxy]phosphinyl]difluoromethyl]phenyl]-but-2-enoyl-norleucinyl-4,4-difluoroprolinyl-(R)-4-aminopentamide], the “inhibition” value was “inhibit phosphorylation of STAT3”. `CCCC[C@H](NC(=O)/C=C(\C)c1ccc(C(F)(F)P(=O)(OCOC(=O)C(C)(C)C)OCOC(=O)C(C)(C)C)cc1)C(=O)N1CC(C)(C)C[C@H]1C(=O)N[C@H](C)CCC(N)=O` [Example 25, (2E)-3-[4-[[bis[(2,2-dimethyl-1-oxopropoxy)methoxy]phosphinyl]difluoromethyl]phenyl]-but-2-enoyl-norleucinyl-4,4-dimethylprolinyl-(R)-4-aminopentamide] was tested, and the “inhibition” value was “inhibit phosphorylation of STAT3”.
